PMC7556697 (ACS chemical biology, 2020)

Target: NRAS (Homo sapiens, UniProt P01111, Q61R)
Test: acyl-resin assisted capture
Type: cell-based

IC50: 7 µM
Substance: C8 alkyl cysteine [compound 1]
